# According to US12486267B2, “Imidazo[1,2-A]pyridine and [1,2,4]triazolo[1,5-A]pyridine derivatives as TLR9 inhibitors for the treatment of fibrosis” (BRISTOL-MYERS SQUIBB COMPANY, priority 2020, dated 2025):
# Assays:
# Format in all cases: cell-based
# [1] = biological target: T1, human TLR7 (Homo sapiens, UniProt Q9NYK1); assay: TLR7 inhibition reporter assay (HEK-Blue cells, SEAP reporter); details: HEK-Blue cells overexpressing human TLR7; stimulated with gardiquimod 7.5 μM; 22 hour incubation; SEAP readout
# T1 sequence (Q9NYK1 27-1049): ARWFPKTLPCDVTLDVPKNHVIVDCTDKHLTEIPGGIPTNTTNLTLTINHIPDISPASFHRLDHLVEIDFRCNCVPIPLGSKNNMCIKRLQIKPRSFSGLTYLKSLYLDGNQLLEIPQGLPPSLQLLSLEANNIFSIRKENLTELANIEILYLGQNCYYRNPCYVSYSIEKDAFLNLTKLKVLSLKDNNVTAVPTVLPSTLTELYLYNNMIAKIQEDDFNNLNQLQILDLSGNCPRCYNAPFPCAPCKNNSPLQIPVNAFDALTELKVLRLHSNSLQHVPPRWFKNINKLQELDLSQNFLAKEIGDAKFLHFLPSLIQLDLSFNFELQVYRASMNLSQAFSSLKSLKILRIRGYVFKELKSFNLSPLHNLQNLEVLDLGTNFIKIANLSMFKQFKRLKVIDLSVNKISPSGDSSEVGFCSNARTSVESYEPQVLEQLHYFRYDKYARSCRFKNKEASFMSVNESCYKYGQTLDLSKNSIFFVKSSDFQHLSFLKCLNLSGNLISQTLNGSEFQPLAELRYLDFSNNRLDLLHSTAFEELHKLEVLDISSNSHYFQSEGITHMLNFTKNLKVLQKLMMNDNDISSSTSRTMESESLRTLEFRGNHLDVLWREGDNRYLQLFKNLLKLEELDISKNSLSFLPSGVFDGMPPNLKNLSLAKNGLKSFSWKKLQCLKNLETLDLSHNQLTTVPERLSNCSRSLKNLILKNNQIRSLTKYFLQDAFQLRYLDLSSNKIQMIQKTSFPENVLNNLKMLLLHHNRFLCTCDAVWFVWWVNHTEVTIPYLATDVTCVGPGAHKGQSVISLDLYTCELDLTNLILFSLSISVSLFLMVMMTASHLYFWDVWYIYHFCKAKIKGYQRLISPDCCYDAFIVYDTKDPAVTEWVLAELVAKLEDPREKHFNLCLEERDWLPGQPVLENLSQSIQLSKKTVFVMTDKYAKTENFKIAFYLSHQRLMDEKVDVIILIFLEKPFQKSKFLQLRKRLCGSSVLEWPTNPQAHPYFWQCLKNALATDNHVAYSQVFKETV
# Description: (§1) TLR7/8/9 Inhibition Reporter Assays
# (§2) HEK-Blue™-cells (Invivogen) overexpressing human TLR7, TLR8 or TLR9 receptors were used for screening inhibitors of these receptors using an inducible SEAP (secreted embryonic alkaline phosphatase) reporter gene under the control of the […] minimal promoter fused to five NF-κB and AP-1-binding sites. Briefly, cells are seeded into Greiner 384 well plates (15000 cells per well for TLR7, 20,000 for TLR8 and 25,000 for TLR9) and then treated with test compounds in DMSO to yield a final dose response concentration range of 0.05 nM-50 μM. After a 30 minute compound pre-treatment at room temperature, the cells are then stimulated with a TLR7 ligand (gardiquimod at a final concentration of 7.5 μM), TLR8 ligand (R848 at a final concentration of 15.9 μM) or TLR9 ligand (ODN2006 at a final concentration of 5 nM) to activate NF-κB and AP-1 which induce the production of SEAP. After a 22 hour incubation at 37° C., 5% CO2, SEAP levels are determined with the addition of HEK-Blue™ Detection reagent (Invivogen), a cell culture medium that allows for detection of SEAP, according to manufacturer's specifications. The percent inhibition is determined as the % reduction in the HEK-Blue signal present in wells treated with agonist plus DMSO alone compared to wells treated with a known inhibitor.
# [2] = biological target: T2, human TLR9 (Homo sapiens, UniProt Q9NR96); assay: TLR9 inhibition reporter assay (HEK-Blue cells, SEAP reporter); details: HEK-Blue cells overexpressing human TLR9; stimulated with ODN2006 5 nM; 22 hour incubation; SEAP readout
# T2 sequence (Q9NR96 26-1032): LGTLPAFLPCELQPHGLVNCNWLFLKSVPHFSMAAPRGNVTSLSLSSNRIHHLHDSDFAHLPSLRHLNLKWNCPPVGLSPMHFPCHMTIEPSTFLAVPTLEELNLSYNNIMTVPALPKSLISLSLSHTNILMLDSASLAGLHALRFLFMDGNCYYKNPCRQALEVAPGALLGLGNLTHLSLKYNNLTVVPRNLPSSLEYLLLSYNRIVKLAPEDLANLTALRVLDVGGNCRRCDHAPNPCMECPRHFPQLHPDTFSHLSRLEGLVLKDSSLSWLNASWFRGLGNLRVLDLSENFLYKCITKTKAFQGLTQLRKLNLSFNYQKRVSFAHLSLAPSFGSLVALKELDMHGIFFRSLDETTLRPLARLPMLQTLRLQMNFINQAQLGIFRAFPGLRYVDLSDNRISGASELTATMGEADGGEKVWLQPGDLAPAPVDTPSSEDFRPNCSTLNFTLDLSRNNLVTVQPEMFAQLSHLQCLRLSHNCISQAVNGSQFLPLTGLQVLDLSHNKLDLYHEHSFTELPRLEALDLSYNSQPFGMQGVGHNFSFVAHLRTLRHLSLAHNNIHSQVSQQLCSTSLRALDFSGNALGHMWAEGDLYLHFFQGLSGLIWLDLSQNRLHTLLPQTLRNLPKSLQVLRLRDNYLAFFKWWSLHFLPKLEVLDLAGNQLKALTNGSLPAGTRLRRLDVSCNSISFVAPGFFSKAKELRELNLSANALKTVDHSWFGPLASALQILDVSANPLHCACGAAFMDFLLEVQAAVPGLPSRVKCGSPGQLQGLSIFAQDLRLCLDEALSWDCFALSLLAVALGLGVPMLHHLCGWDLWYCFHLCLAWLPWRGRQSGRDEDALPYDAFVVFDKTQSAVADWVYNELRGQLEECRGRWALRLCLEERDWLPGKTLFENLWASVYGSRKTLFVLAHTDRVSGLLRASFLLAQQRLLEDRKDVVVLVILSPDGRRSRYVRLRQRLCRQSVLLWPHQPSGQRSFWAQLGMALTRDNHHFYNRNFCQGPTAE
# Outline: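 HEK-Blue cells with an NF-κB/AP-1-driven SEAP reporter were pre-treated 30 min at room temperature with compound (0.05 nM–50 μM), then stimulated with gardiquimod 7.5 μM (TLR7), R848 15.9 μM (TLR8) or ODN2006 5 nM (TLR9). After 22 h at 37 °C, SEAP was read; % inhibition was referenced to agonist+DMSO and known-inhibitor wells.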
# [3] = biological target: T3, human TLR8 (Homo sapiens, UniProt Q9NR97); assay: TLR8 inhibition reporter assay (HEK-Blue cells, SEAP reporter); details: HEK-Blue cells overexpressing human TLR8; stimulated with R848 15.9 μM; 22 hour incubation; SEAP readout
# T3 sequence (Q9NR97 27-1041): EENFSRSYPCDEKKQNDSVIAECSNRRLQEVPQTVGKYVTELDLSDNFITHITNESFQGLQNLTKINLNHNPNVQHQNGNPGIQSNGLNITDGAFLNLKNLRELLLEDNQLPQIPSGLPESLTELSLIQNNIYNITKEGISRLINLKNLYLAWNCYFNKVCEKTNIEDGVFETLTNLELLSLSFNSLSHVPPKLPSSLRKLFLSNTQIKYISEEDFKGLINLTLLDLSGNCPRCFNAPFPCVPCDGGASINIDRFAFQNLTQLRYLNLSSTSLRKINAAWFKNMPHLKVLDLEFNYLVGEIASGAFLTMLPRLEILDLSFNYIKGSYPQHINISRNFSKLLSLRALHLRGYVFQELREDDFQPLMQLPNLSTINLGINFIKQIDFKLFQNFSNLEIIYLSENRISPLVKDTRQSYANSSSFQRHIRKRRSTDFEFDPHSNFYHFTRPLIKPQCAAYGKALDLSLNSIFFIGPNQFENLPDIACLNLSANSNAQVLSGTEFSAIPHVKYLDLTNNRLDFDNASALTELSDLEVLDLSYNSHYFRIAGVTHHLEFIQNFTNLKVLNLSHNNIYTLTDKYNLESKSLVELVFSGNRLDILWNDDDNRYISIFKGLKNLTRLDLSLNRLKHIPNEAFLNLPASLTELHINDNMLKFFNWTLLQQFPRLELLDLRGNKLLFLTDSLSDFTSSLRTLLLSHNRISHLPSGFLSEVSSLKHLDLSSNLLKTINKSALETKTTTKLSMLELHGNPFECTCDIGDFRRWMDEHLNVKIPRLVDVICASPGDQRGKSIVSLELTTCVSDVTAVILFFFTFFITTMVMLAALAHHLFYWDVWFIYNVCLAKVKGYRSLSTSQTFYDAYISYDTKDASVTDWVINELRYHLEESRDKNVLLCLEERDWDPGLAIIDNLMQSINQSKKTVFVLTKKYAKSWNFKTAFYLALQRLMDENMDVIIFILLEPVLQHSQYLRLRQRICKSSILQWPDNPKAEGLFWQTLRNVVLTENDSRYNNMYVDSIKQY
# Description: as §1, §2
IC50 [1] [µM],IC50 [2] [µM],IC50 [3] [µM],SMILES
18,0.114,> 50,"COc1ccc(-c2cn3c(n2)CCC(C2CCN(C4CC5(C4)CN(CC(C)C)C5)CC2)C3)cc1OC (racemic) [Example 52, 2-(3,4-dimethoxyphenyl)-6-(1-(2-isobutyl-2-azaspiro[3.3]heptan-6-yl)piperidin-4-yl)-5,6,7,8-tetrahydroimidazo[1,2-a]pyridine]"
> 50,0.067,> 50,"COc1ccc(-c2cn3c(n2)CC[C@H](C2CCN(C4CC5CCC(C4)N5C(C)C)CC2)C3)cc1OC (single isomer, unassigned) [Example 134]"
> 50,0.352,> 50,"CS(=O)(=O)c1ccc(-c2cn3c(n2)CC[C@@H](C2CCN(C4CC5CCC(C4)N5CC4CC4)CC2)C3)cc1 (single isomer, unassigned) [Example 140]"
3,0.166,> 50,"COc1ccc(-c2cn3cc(C4CCN(C5CCN(C(C)C)CC5)CC4)cc(C)c3n2)cc1F [Example 5, 2-(3-fluoro-4-methoxyphenyl)-6-(1′-isopropyl-[1,4′-bipiperidin]-4-yl)-8-methylimidazo[1,2-a]pyridine]"
3.3,0.048,> 50,"COc1ccc(-c2cn3cc(C4CCN(C5CC6CCC(C5)N6CC(C)C)CC4)cc(C)c3n2)cc1OC (single isomer, unassigned) [Example 18, 2-(3,4-dimethoxyphenyl)-6-(1-(8-isobutyl-8-azabicyclo[3.2.1]octan-3-yl)piperidin-4-yl)-8-methylimidazo[1,2-a]pyridine]"
2.3,0.021,> 50,"Cc1cc(C2CCN(C3CCN(C(C)C)CC3)CC2)cn2cc(-c3ccc(S(C)(=O)=O)cc3)nc12 [Example 8, 6-(1′-isopropyl-[1,4′-bipiperidin]-4-yl)-8-methyl-2-(4-(methylsulfonyl)phenyl) imidazo[1,2-a]pyridine]"
4,0.3,> 50,"CC(C)N1CCC(N2CCC(c3ccn4cc(-c5ccc(S(C)(=O)=O)cc5)nc4c3F)CC2)CC1 [Example 132, 8-fluoro-7-(1′-isopropyl-[1,4′-bipiperidin]-4-yl)-2-(4-(methylsulfonyl)phenyl) imidazo[1,2-a]pyridine]"
3,0.039,> 50,"CC(C)N1CCCC(N2CCC(c3cc(F)c4nc(-c5ccc(S(C)(=O)=O)cc5)cn4c3)CC2)CC1 (single isomer, unassigned) [Example 71, 8-fluoro-6-(1-(1-isopropylazepan-4-yl)piperidin-4-yl)-2-(4-(methylsulfonyl)phenyl)imidazo[1,2-a]pyridine]"
6,0.045,> 50,"COc1ccc(-c2cn3c(n2)CCC(C2CCN(C4CCN(C5CC5)CC4)CC2)C3)cc1OC (single isomer, unassigned) [Example 38, 6-(1′-cyclopropyl-[1,4′-bipiperidin]-4-yl)-2-(3,4-dimethoxyphenyl)-5,6,7,8-tetrahydroimidazo[1,2-a]pyridine]"
> 50,0.496,> 50,"CC(C)CN1CCC(N2CCC(c3cn4cc(-c5ccc(S(C)(=O)=O)cc5)nc4cc3F)CC2)CC1 [Example 123, 7-fluoro-6-(1′-isobutyl-[1,4′-bipiperidin]-4-yl)-2-(4-(methylsulfonyl)phenyl) imidazo[1,2-a]pyridine]"

SMILES,IC50 [1] [µM],IC50 [2] [µM],IC50 [3] [µM]
"COc1ccc(-c2cn3cc(C4C[C@H]5CC[C@@H](C4)N5C4CCN(C(C)C)CC4)cc(C)c3n2)cc1OC (mixture of isomers) [Example 30, 2-(3,4-dimethoxyphenyl)-6-(8-(1-isopropylpiperidin-4-yl)-8-azabicyclo[3.2.1]octan-3-yl)-8-methylimidazo[1,2-a]pyridine]",1.4,0.037,> 50
